Data taken from patent US20140357662A1, “THIENO (2,3 - C) PYRAZOLES FOR USE AS POTASSIUM CHANNEL INHIBITORS” (XENTION LIMITED, priority 2011, published 2014).

target: T1, rat Kir3.1/3.4 (Rattus norvegicus, UniProt P48548+P63251); experiment: Kir3.1/3.4 Electrophysiology Method (manual whole-cell patch clamp); format: cell-based; conditions: Human Embryonic Kidney 293 stably transfected with rat Kir3.1/3.4; inhibition of leak-subtracted current at -140 mV
T1 construct: expressed in transfected cells; host or cells: HEK293 (Human Embryonic Kidney 293), stably transfected
T1 sequence (P63251 1-501): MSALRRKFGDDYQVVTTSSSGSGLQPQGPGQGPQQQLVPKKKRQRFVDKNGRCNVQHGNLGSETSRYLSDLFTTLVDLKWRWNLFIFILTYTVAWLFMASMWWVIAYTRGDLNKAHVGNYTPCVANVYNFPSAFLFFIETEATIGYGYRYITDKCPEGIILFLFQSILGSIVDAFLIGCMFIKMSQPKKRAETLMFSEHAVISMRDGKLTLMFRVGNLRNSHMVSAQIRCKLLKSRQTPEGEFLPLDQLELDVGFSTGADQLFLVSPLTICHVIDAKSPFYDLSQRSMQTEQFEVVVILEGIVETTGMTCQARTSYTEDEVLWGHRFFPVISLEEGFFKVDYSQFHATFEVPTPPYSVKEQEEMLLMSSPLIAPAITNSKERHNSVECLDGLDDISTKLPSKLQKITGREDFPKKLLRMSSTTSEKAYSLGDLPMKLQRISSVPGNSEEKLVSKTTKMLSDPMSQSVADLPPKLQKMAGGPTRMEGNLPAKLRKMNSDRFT
T1 sequence (P48548 1-419): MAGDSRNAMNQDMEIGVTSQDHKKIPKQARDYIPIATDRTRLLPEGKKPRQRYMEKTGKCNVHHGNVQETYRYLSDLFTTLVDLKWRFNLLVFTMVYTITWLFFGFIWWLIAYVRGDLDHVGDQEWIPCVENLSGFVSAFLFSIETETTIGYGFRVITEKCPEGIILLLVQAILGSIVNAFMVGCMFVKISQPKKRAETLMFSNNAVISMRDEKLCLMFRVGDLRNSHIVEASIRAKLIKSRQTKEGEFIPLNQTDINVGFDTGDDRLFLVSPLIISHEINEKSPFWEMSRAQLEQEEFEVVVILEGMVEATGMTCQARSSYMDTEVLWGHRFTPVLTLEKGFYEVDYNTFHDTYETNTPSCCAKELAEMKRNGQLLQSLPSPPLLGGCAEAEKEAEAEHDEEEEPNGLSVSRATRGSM
Procedure: Compound activity against the recombinant G-protein activated inward rectifier current encoded by the heterotetramer Kir3.1/3.4 was assessed using manual whole-cell patch technique. The heterotetramer forms the pore-forming channel that conducts the acetylcholine/adenosine-activated potassium current in the heart.
For whole-cell patch-clamp studies, cells (Human Embryonic Kidney 293 stably transfected with rat Kir3.1/3.4) were seeded onto glass coverslips before recordings were made. Cells were seeded in sterile 30 mm Petri dishes at a density to enable isolated cells to be selected for patch clamp experiments. The dishes were stored in a humidified, gassed (5% CO2) incubator at 37° C. until use.
Whole-cell patch-clamp recordings of membrane currents were made following gigaohm seal formation between the patch electrode and the cell using HEKA EPC-9/10 amplifiers controlled by Pulse Software (Ver8.5x/8.6x/8.7x, HEKA, Germany). Coverslips seeded with cells were placed in a recording chamber mounted on the stage of an inverted microscope. During the experiment, the cell of interest was continuously superfused with bather solution delivered via a cannula placed in close proximity to the cell to enable control of the extracellular solution environment. Only those cells with a current <−500 pA (current at −140 mV) were used for experiments. During experiments, series resistance was compensated by a minimum of 70%.
Electrophysiology voltage-step protocols and analysis of data were performed as follows. Data was sampled at 5 kHz, and filtered with a −3 dB bandwidth of 2.5 kHz. Cells were held at a voltage of −60 mV. Currents were evoked by a depolarising voltage step to +60 mV (100 ms) before a ramp-repolarisation (0.4 V·s^−1) to −140 mV (100 ms) before returning to −60 mV. The command waveform was repeatedly applied every 10 s throughout the experiment. Mean currents during 1-99% of the time at −140 mV were analysed using Pulsefit software (v8.x, HEKA, Germany). The voltage protocol was repeatedly applied to achieve a stable current baseline in bather before the test substance was superfused via the cannula in close proximity to the cell under investigation. The test substance was allowed to equilibrate during which time voltage protocol was repeatedly applied and recorded. On reaching steady-state inhibition, the cell was superfused with an identical bather solution containing zero external potassium chloride (replaced by equimolar NaCl). The identical current measurement was made in the absence of potassium to assess the passive leak at −140 mV. The leak current was subtracted from the control and steady-state drug current values. The percentage inhibition of the leak-subtracted current in the presence of test substance was calculated relative to the control leak-subtracted pre-drug value. Internal patch-pipette solution contained in mM: 110 KCl, 20 NaCl, 0.9 GTPγS, 5 Mg-ATP, 5 EGTA, 10 HEPES, pH7.2 corrected with KOH. The external superfusate composition in mM was: 150 (or 160) NaCl, 10 (or 0) KCl, 3 CaCl2, 1 MgCl, 10 HEPES, pH 7.4 corrected with NaOH.

Structure (SMILES)	IC50
CC(=O)n1nc(N2CCCC(COCCN3CCCC3)C2)c2c(-c3ccccc3)csc21 (stereo not drawn) [Compound 18, 1-[4-phenyl-3-[3-(2-pyrrolidin-1-ylethoxymethyl)-1-piperidyl]thieno[2,3-c]pyrazol-1-yl]ethanone]	< 500 nM
c1ccc(-c2csc3[nH]nc(N4C5CCC4CC(NC4CCC4)C5)c23)cc1 (stereo not drawn) [Compound 10, N-cyclobutyl-8-(4-phenyl-1H-thieno[2,3-c]pyrazol-3-yl)-8-azabicyclo[3.2.1]octan-3-amine]	< 500 nM
CC(C)NC1CC2CCC(C1)N2c1n[nH]c2scc(-c3ccccc3)c12 (stereo not drawn) [Compound 12, N-isopropyl-8-(4-phenyl-1H-thieno[2,3-c]pyrazol-3-yl)-8-azabicyclo[3.2.1]octan-3-amine]	500 to 3000 nM
c1ccc(-c2csc3[nH]nc(N4C5CCC4CC(N4CCC4)C5)c23)cc1 (stereo not drawn) [Compound 11, 3-[3-(azetidin-1-yl)-8-azabicyclo[3.2.1]octan-8-yl]-4-phenyl-1H-thieno[2,3-c]pyrazole]	500 to 3000 nM
CNC(=O)c1sc2[nH]nc(N3CCC(COCCN4CCCC4)CC3)c2c1-c1ccccc1 [Compound 25, N-methyl-4-phenyl-3-[4-(2-pyrrolidin-1-ylethoxymethyl)-1-piperidyl]-1H-thieno[2,3-c]pyrazole-5-carboxamide]	< 500 nM
CC(=O)n1nc(N2C3CCC2CC(OCCN2CCCC2)C3)c2c(-c3ccccc3)csc21 (stereo not drawn) [Compound 17, 1-[4-phenyl-3-[3-(2-pyrrolidin-1-ylethoxy)-8-azabicyclo[3.2.1]octan-8-yl]thieno[2,3-c]pyrazol-1-yl]ethanone]	< 500 nM
c1ccc(-c2csc3[nH]nc(N4CCC(COCCN5CCCC5)C4)c23)cc1 (stereo not drawn) [Compound 9, 4-phenyl-3-[3-(2-pyrrolidin-1-ylethoxymethyl)pyrrolidin-1-yl]-1H-thieno[2,3-c]pyrazole]	< 500 nM
CN(C)C(=O)c1sc2[nH]nc(N3CCC(COCCN4CCCC4)CC3)c2c1-c1ccccc1 [Compound 23, N,N-dimethyl-4-phenyl-3-[4-(2-pyrrolidin-1-ylethoxymethyl)-1-piperidyl]-1H-thieno[2,3-c]pyrazole-5-carboxamide]	500 to 3000 nM
CC(=O)n1nc(N2CCC(COCCN3CCCC3)C2)c2c(-c3ccccc3)csc21 (stereo not drawn) [Compound 19, 1-[4-phenyl-3-[3-(2-pyrrolidin-1-ylethoxymethyl)pyrrolidin-1-yl]thieno[2,3-c]pyrazol-1-yl]ethanone]	< 500 nM
c1ccc(-c2csc3[nH]nc(N4C5CCC4CC(COCCN4CCCC4)C5)c23)cc1 (stereo not drawn) [Compound 6, 4-phenyl-3-[3-(2-pyrrolidin-1-ylethoxymethyl)-8-azabicyclo[3.2.1]octan-8-yl]-1H-thieno[2,3-c]pyrazole]	< 500 nM
Fc1ccc(-c2csc3[nH]nc(N4CC5CC4CC5OCCN4CCCC4)c23)cc1 (stereo not drawn) [Compound 5, 4-(4-fluorophenyl)-3-[5-(2-pyrrolidin-1-ylethoxy)-2-azabicyclo[2.2.1]heptan-2-yl]-1H-thieno[2,3-c]pyrazole]	< 500 nM
c1ccc(-c2csc3[nH]nc(N4C5CCC4CC(OCCN4CCCC4)C5)c23)cc1 (stereo not drawn) [Compound 7, 4-phenyl-3-[3-(2-pyrrolidin-1-ylethoxy)-8-azabicyclo[3.2.1]octan-8-yl]-1H-thieno[2,3-c]pyrazole]	< 500 nM
c1ccc(-c2csc3[nH]nc(N4CCCC(COCCN5CCCC5)C4)c23)cc1 (stereo not drawn) [Compound 8, 4-phenyl-3-[3-(2-pyrrolidin-1-ylethoxymethyl)-1-piperidyl]-1H-thieno[2,3-c]pyrazole]	< 500 nM
CC(C)NC(=O)c1sc2[nH]nc(N3CCC(COCCN4CCCC4)CC3)c2c1-c1ccccc1 [Compound 24, N-isopropyl-4-phenyl-3-[4-(2-pyrrolidin-1-ylethoxymethyl)-1-piperidyl]-1H-thieno[2,3-c]pyrazole-5-carboxamide]	< 500 nM
CN(C)C(=O)c1sc2c(c(N3CCC(COCCN4CCCC4)CC3)nn2C)c1-c1ccccc1 [Compound 22, N,N,1-trimethyl-4-phenyl-3-[4-(2-pyrrolidin-1-ylethoxymethyl)-1-piperidyl]thieno[2,3-c]pyrazole-5-carboxamide]	500 to 3000 nM
